Drawing on ChEMBL document CHEMBL4680354, “Design, synthesis and biological evaluation of novel indanone containing spiroisoxazoline derivatives with selective COX-2 inhibition as anticancer agents” (Bioorg Med Chem, 2021), this text covers IC50 and Activity for eleven compounds.

SMILES strings stand for the structures.

Test [1] has as its target T1, Prostaglandin G/H synthase 1 (Ovis aries, UniProt P05979).
T1 sequence (P05979 whole entry): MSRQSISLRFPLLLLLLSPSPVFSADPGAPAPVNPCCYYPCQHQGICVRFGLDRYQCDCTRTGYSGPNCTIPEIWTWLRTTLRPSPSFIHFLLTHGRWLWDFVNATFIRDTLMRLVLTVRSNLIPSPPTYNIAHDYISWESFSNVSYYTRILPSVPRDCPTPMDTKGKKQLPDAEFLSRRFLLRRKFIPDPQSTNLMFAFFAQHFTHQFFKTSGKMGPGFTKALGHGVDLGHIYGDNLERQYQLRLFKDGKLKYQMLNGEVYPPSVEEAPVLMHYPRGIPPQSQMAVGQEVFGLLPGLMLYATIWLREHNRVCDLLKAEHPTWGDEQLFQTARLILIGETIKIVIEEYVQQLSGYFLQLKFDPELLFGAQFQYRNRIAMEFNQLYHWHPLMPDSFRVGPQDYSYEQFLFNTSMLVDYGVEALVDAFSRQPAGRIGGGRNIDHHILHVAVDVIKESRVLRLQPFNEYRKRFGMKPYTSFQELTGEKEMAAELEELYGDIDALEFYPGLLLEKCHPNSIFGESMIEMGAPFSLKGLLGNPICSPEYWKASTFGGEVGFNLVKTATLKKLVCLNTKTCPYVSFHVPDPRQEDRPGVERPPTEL
The test can be described thus: Inhibition of Ovine COX-1 by chemiluminescent enzyme method.

Test [2] relates to MCF7. The test is described as follows: Antiproliferative activity against human MCF-7 cells assessed as reduction in cell viability incubated for 72 hrs by MTT assay. Type of test: functional, cell-based. As to conditions: MCF7, 72 h.
The subject of another test is HT-29. The test can be described thus: Antiproliferative activity against human HT-29 cells assessed as reduction in cell viability incubated for 72 hrs by MTT assay. The settings on record: HT-29, 72 h. Type of test: functional, cell-based.
The test system of the next test is MCF-10A. The test is described as follows: Antiproliferative activity against human MCF10A cells assessed as reduction in cell viability incubated for 72 hrs by MTT assay. It counts as functional, cell-based.
The subject of a further test is HEK293. The test is described as follows: Cytotoxicity against human HEK293 cells assessed as reduction in cell viability incubated for 72 hrs by MTT assay. It counts as cell-based. As to conditions: HEK293, 72 h.
Test [3] relates to MCF7. The test is described as follows: Antiproliferative activity against human cells MCF-7 assessed as reduction in cell viability incubated for 48 hrs by MTT assay. It counts as functional, cell-based. As to conditions: MCF7, 48 h.
Test [4] has as its system MCF7. The test is described as follows: Antiproliferative activity against human cells MCF-7 assessed as reduction in cell viability incubated for 24 hrs by MTT assay. Type of test: functional, cell-based. As to conditions: MCF7, 24 h.
The test system of test [5] is MCF7. The test can be described thus: Induction of apoptosis in human MCF7 cells assessed as viable cells at IC50 measured after 72 hrs by Annexin-V/propidium iodide staining-based flow cytometric analysis (reference value: […]). It counts as functional.
The subject of test [6] is MCF7. The test can be described thus: Induction of apoptosis in human MCF7 cells assessed as early apoptotic cells at IC50 measured after 72 hrs by Annexin-V/propidium iodide staining-based flow cytometric analysis (reference value: 1.1%). Type of test: functional.
Test [7] relates to MCF7. The test can be described thus: Induction of apoptosis in human MCF7 cells assessed as late apoptotic cells at IC50 measured after 72 hrs by Annexin-V/propidium iodide staining-based flow cytometric analysis (reference value: 92.7%). It counts as functional.
The subject of test [8] is MCF7. The test is described as follows: Induction of apoptosis in human MCF7 cells assessed as necrotic cells at IC50 measured after 72 hrs by Annexin-V/propidium iodide staining-based flow cytometric analysis (reference value: 4.7%). It counts as functional.

As to `CS(=O)(=O)c1ccc(C2C(c3ccc(F)cc3)=NOC23Cc2ccccc2C3=O)cc1` (configuration not stated), the IC50 in test [1] is 10.8 µM; with MCF7 [2], 0.14 µM; with HT-29, 55.4 µM; in the test with MCF-10A, 3.21 µM; in the test on HEK293 it was 0.64 µM; in the test on MCF7 [3], 16.5 µM.
With `CC[C@]1(O)C[C@@H]2CN(CCc3c([nH]c4ccccc34)[C@@](C(=O)OC)(c3cc4c(cc3OC)N(C)[C@H]3[C@@](O)(C(=O)OC)[C@H](OC(C)=O)[C@]5(CC)C=CCN6CC[C@]43[C@@H]65)C2)C1` [VINBLASTINE], the figures for the IC50 in the test with HT-29 and with MCF7 [4] were 3.18 µM and 0.23 µM, respectively.
For `CS(=O)(=O)c1ccc(C2C(c3ccccc3)=NOC23Cc2ccccc2C3=O)cc1` (configuration not stated), the IC50 in test [1] was 11.4 µM; with MCF7 [2] it was 8.53 µM; with HT-29 it was 239 µM; with MCF-10A it was over 100 µM; in the test on HEK293, over 100 µM; with MCF7 [3], 17.1 µM.
For the compound `COc1cc(C2=NOC3(Cc4ccccc4C3=O)C2c2ccc(S(C)(=O)=O)cc2)cc(OC)c1OC` (configuration not stated), the IC50 was 12.8 µM in [1]; 0.87 µM in the test with MCF7 [2]; 112 µM in the test with HT-29; over 100 µM in the test on MCF-10A; 70.8 µM in the test with HEK293; 17.6 µM in the test with MCF7 [4]. Moreover, the concentration for half-maximal inhibition (IC50) with MCF7 [3] amounted to 3.96 µM.
As to `Cc1ccc(-c2cc(C(F)(F)F)nn2-c2ccc(S(N)(=O)=O)cc2)cc1` [CELECOXIB], the IC50 in the test with HT-29 worked out at 18 µM; in the test with MCF7 [4], 19.8 µM; in the test with MCF7 [3], 16 µM.
`COc1ccc(C2=NOC3(Cc4ccccc4C3=O)C2c2ccc(S(C)(=O)=O)cc2)cc1` (configuration not stated): the IC50 in test [1] was 9.89 µM; in the test with MCF7 [2] it was 0.65 µM; with HT-29 it was 68.5 µM; with MCF-10A, over 100 µM; in the test on HEK293, over 100 µM; in the test on MCF7 [3], over 100 µM.
Consider `CS(=O)(=O)c1ccc(C2C(c3ccc(Cl)cc3)=NOC23Cc2ccccc2C3=O)cc1` (configuration not stated), for which the IC50 in [1] came to 9.43 µM; in the test with MCF7 [2], 1.2 µM; in the test on HT-29 it was 99.3 µM; in the test with MCF-10A it was 22.5 µM; in the test with HEK293, 37.7 µM; with MCF7 [3], 64.8 µM.
On to `COc1ccc(C2=NOC3(Cc4ccccc4C3=O)C2c2ccc(S(C)(=O)=O)cc2)cc1OC` (configuration not stated), for which the IC50 is 12.1 µM in test [1]; 0.03 µM with MCF7 [2]; 43.7 µM in the test with HT-29; over 100 µM in the test with MCF-10A; over 100 µM in the test on HEK293; 10.5 µM in the test with MCF7 [4]. Moreover, the IC50 in the test on MCF7 [3] amounted to 1.03 µM. Moreover, the Activity with MCF7 [5] is reported as 2.5%; in the test with MCF7 [6], 37.2%; in the test with MCF7 [7] it was 44.7%; in the test on MCF7 [8], 15.6%.
With `COc1cccc2c1C(=O)c1c(O)c3c(c(O)c1C2=O)C[C@@](O)(C(=O)CO)C[C@@H]3O[C@H]1C[C@H](N)[C@H](O)[C@H](C)O1` [DOXORUBICIN], the IC50 with HT-29 was 1.57 µM.
Take `CC[C@]1(O)C[C@H]2CN(CCc3c([nH]c4ccccc34)[C@@](C(=O)OC)(c3cc4c(cc3OC)N(C=O)[C@H]3[C@@](O)(C(=O)OC)[C@H](OC(C)=O)[C@]5(CC)C=CCN6CC[C@]43[C@@H]65)C2)C1` [VINCRISTINE]: the IC50 in the test on MCF7 [2] turned out to be 0.89 µM; in the test with HT-29, 1.74 µM; in the test on MCF7 [4], 0.92 µM.
Regarding `Cc1ccc(C2=NOC3(Cc4ccccc4C3=O)C2c2ccc(S(C)(=O)=O)cc2)cc1` (configuration not stated), the IC50 in test [1] is 10.1 µM; in the test on MCF7 [2], 0.17 µM; in the test with HT-29 it was 73 µM; with MCF-10A it was over 100 µM; in the test with HEK293 it was 82.4 µM; in the test on MCF7 [3], 25.7 µM.
